Active and inactive are the calls of the source. The calls are words filed in the database; no cut-off is given here.
Tests used:
Cytochrome P450 2C19 = Cytochrome P450 2C19 (Homo sapiens, UniProt P33261); assay: Inhibition of human CYP2C19; assay type: ADME
[1] = Cmax in Sprague-Dawley rat at 3 mg/kg, po; assay type: ADME, organism-based; set-up: dose 3 mg/kg, route oral; settings: in vivo
Adenosine receptor A1 [2] = biological target: T1, Adenosine receptor A1 (Homo sapiens, UniProt P30542); assay: Agonist activity at human A1A adenosine receptor expressed in HEK cell membranes incubated for 60 mins by [35S]GTPgammaS binding assay; assay type: functional
T1 sequence (P30542 whole entry): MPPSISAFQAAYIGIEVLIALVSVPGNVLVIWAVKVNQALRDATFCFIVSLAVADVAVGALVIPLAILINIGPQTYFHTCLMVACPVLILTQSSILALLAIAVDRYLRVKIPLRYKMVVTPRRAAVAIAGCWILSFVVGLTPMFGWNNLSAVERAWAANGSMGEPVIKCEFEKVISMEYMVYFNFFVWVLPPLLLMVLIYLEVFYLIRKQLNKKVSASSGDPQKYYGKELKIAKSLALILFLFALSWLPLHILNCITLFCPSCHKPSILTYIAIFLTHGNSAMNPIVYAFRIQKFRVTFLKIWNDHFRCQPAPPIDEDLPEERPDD

[3] = Half life in Sprague-Dawley rat at 1 to 10 mg/kg, po; assay type: ADME, organism-based; settings: in vivo
[4] = Stability in rat plasma; assay type: ADME, cell-free
[5] = biological target: T2, Adenosine receptor A3 (Mus musculus) (UniProt Q61618); assay: Agonist activity at mouse A3AR adenosine receptor at 10 uM after 60 mins by [35S]GTPgammaS binding assay relative to (2S,3S,4R,5R)-5-(6-amino-9H-purin-9-yl)-N-ethyl-3,4-dihydroxytetrahydrofuran-2-carboxamide; assay type: functional
T2 sequence (whole entry): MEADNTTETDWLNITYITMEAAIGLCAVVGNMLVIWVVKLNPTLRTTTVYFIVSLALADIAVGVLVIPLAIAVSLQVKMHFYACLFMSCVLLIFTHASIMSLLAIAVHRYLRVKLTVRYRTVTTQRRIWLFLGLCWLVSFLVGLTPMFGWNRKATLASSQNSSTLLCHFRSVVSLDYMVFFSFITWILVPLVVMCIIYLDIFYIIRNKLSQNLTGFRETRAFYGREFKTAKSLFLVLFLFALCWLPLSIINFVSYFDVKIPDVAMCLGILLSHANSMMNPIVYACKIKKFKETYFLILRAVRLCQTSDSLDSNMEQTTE

[6] = Fraction unbound in human plasma at 10 uM; assay type: ADME, cell-free
Adenosine receptor A1 [7] = biological target: T1, Adenosine receptor A1; assay: Agonist activity at human A1A adenosine receptor expressed in HEK cells assessed as inhibition of forskolin-stimulated cAMP production after 60 mins; assay type: functional, cell-based
[8] = Stability in mouse plasma; assay type: ADME, cell-free
Mus musculus [9] = assay: Induction of hypothermia in A3AR knock out C57BL/6J mouse assessed as effect on body temperature at 3 mg/kg, ip measured at 60 mins post dose; assay type: functional, organism-based
Cytochrome P450 1A2 = Cytochrome P450 1A2 (Homo sapiens, UniProt P05177); assay: Inhibition of human CYP1A2; assay type: ADME
Cytochrome P450 1A2, sequence (P05177 whole entry): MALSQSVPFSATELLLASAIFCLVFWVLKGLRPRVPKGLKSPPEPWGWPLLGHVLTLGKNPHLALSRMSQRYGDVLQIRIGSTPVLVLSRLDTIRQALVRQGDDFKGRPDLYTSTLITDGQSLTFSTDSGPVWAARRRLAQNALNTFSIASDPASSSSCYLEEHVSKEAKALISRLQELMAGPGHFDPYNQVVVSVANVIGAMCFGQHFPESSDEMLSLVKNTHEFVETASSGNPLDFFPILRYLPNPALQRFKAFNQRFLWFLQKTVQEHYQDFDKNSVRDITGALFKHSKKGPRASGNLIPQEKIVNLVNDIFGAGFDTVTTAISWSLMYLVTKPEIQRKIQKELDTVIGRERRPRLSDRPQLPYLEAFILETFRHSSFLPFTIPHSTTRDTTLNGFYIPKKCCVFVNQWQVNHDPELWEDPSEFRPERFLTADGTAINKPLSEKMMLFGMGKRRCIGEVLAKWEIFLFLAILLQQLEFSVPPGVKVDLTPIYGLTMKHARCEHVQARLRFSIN

[10] = Stability of the compound in simulated intestinal fluid; assay type: ADME; settings: simulated gi fluid
[11] = Stability of the compound in simulated gastric fluid; assay type: ADME; settings: simulated gi fluid
Mus musculus [12] = assay: Induction of hypothermia in A1AR/A3AR knock out C57BL/6J mouse assessed as effect on body temperature at 3 mg/kg, ip measured at 60 mins post dose; assay type: functional, organism-based
Adenosine receptor A1 [13] = biological target: T1, Adenosine receptor A1; assay: Agonist activity at human A1A adenosine receptor expressed in CHOKI cells assessed as induction of beta-arrestin2 recruitment after 60 mins; assay type: cell-based
[14] = Fraction unbound in mouse plasma at 10 uM; assay type: ADME, cell-free
Mus musculus [15] = assay: Induction of hypothermia in A1AR knock out C57BL/6J mouse assessed as effect on body temperature at 3 mg/kg, ip measured at 60 mins post dose; assay type: functional, organism-based
Mus musculus [16] = assay: Induction of hypothermia in C57BL/6J mouse assessed as body temperature at 3 mg/kg, ip measured at 60 mins post dose (reference value: 36.3 +/- 0.8 degC); assay type: functional
Mus musculus [17] = assay: Induction of hypothermia in C57BL/6J mouse assessed as activity counts at 3 mg/kg, ip measured at 60 mins post dose (reference value: 15.5 +/- 5.5); assay type: functional
[18] = Oral bioavailability in Sprague-Dawley rat at 1 to 10 mg/kg; assay type: ADME, organism-based; settings: in vivo
[19] = Stability in human plasma; assay type: ADME, cell-free
Mus musculus [20] = assay: Induction of hypothermia in C57BL/6J mouse assessed as body temperature at […], icv measured after 10 hrs post dose; assay type: functional, organism-based
HepG2 = assay: Cytotoxicity against human HepG2 cells; assay type: cell-based
[21] = biological target: Voltage-gated inwardly rectifying potassium channel KCNH2 (Homo sapiens, UniProt Q12809); assay: Inhibition of human ERG by fluorescence polarization assay
Voltage-gated inwardly rectifying potassium channel KCNH2, sequence (Q12809 whole entry): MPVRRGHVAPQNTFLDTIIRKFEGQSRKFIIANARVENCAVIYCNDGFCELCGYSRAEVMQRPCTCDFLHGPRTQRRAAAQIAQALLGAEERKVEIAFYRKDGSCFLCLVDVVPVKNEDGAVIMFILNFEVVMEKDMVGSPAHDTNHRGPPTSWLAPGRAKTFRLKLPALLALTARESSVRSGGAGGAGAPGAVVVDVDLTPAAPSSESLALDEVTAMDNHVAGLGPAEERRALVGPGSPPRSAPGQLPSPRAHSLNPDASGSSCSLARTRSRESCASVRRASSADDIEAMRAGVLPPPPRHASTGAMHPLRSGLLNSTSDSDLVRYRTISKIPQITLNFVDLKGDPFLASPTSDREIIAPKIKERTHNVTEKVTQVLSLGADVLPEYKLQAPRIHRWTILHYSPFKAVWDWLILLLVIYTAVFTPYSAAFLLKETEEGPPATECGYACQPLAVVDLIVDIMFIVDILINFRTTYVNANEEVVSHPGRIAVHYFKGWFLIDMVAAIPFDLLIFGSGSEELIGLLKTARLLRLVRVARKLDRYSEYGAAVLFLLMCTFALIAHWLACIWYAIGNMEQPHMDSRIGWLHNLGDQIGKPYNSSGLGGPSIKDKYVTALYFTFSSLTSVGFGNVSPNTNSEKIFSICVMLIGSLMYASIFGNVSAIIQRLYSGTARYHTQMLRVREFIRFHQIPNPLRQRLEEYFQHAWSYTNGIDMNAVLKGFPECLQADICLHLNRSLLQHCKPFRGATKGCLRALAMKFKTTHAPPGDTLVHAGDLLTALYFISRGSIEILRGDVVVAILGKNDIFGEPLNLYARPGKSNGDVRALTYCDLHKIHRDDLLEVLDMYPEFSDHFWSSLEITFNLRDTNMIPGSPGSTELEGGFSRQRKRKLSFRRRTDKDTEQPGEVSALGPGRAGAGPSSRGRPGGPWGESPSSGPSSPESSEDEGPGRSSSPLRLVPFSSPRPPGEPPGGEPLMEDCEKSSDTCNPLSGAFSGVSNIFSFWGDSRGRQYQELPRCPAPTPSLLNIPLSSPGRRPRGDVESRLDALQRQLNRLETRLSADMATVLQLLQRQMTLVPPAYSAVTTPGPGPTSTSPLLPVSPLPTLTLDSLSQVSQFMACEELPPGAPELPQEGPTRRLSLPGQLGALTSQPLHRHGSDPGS

[22] = Fraction unbound in rat plasma at 10 uM; assay type: ADME, cell-free
[23] = Elimination half life in CD1 mouse at 1 to 10 mg/kg, po; assay type: ADME, organism-based; settings: in vivo
[24] = Oral bioavailability in CD1 mouse at 3 mg/kg; assay type: ADME, organism-based; settings: in vivo
Cytochrome P450 2D6 = Cytochrome P450 2D6 (Homo sapiens, UniProt P10635)
Cytochrome P450 2D6, sequence (P10635 whole entry): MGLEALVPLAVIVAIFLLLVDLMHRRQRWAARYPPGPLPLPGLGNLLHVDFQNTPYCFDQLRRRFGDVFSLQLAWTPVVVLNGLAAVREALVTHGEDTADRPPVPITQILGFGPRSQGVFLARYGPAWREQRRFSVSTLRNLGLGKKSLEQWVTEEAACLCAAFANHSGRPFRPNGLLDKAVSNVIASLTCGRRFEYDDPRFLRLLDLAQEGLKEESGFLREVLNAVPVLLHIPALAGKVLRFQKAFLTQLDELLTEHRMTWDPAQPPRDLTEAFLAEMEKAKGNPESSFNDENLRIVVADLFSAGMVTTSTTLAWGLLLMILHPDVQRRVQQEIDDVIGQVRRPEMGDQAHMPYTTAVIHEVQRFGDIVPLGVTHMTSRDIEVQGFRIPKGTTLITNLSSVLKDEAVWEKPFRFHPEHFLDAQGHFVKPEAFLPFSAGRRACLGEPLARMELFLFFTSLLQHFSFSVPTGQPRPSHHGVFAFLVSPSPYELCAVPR
Description: Inhibition of human CYP2D6 using dextromethorphan as substrate

[25] = Stability in human liver microsomes; assay type: ADME, Microsome
[26] = Oral bioavailability in cynomolgus monkey at 1 mg/kg; assay type: ADME, organism-based, Macaca fascicularis; settings: in vivo
[27] = Stability in simulated intestinal fluid; assay type: ADME; settings: simulated gi fluid
Adenosine receptor A1 [28] = biological target: Adenosine receptor A1 (Rattus norvegicus, UniProt P25099); assay: Agonist activity at rat A1A adenosine receptor expressed in CHO-K1 cell membranes incubated for 60 mins by [35S]GTPgammaS binding assay; assay type: functional
Adenosine receptor A1 (Rattus norvegicus, UniProt P25099), sequence (P25099 whole entry): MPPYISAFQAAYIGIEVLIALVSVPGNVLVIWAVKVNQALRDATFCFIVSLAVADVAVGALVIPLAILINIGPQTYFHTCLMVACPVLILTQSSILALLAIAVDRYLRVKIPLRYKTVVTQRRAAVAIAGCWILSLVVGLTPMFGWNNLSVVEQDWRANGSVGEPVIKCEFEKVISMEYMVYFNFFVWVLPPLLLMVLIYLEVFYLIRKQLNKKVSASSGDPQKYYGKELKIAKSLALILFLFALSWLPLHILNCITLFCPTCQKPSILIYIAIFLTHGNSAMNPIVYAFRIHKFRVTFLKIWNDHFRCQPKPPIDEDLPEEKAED

Cytochrome P450 3A4 = Cytochrome P450 3A4 (Homo sapiens, UniProt P08684)
Cytochrome P450 3A4, sequence (P08684 whole entry): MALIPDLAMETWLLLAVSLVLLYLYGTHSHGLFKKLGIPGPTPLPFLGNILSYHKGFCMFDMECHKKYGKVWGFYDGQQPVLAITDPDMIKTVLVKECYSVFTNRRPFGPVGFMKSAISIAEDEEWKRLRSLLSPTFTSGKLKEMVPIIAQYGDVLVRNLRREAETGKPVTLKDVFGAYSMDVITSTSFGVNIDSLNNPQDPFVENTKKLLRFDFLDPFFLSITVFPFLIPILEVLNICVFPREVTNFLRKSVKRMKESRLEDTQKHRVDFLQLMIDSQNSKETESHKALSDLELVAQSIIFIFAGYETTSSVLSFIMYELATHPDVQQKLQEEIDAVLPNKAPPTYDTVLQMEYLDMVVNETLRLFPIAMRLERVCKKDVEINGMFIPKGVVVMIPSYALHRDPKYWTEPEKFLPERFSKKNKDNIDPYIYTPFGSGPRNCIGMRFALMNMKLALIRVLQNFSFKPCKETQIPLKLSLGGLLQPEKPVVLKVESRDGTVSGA
Description: Inhibition of human CYP3A4 using midazolam as substrate

[29] = Elimination half life in CD1 mouse at 3 to 30 mg/kg, ip; assay type: ADME, organism-based; settings: in vivo
[30] = Toxicity in Sprague-Dawley rat assessed as increase in blood pressure at 3 mg/kg, ip; assay type: organism-based; settings: in vivo
[31] = Stability in simulated gastric fluid after 120 mins; assay type: ADME; settings: read-out: Stability
[32] = Toxicity in rhesus monkey at 1 to 3 mg/kg dosed in food treat measured up to 4 hrs post dose; assay type: organism-based, Macaca mulatta; settings: in vivo, po
[33] = Toxicity in Sprague-Dawley rat assessed as reduction in heart rate at 3 mg/kg, ip; assay type: organism-based; settings: in vivo
Cytochrome P450 2C9 = Cytochrome P450 2C9 (Homo sapiens, UniProt P11712)
Cytochrome P450 2C9, sequence (P11712 whole entry): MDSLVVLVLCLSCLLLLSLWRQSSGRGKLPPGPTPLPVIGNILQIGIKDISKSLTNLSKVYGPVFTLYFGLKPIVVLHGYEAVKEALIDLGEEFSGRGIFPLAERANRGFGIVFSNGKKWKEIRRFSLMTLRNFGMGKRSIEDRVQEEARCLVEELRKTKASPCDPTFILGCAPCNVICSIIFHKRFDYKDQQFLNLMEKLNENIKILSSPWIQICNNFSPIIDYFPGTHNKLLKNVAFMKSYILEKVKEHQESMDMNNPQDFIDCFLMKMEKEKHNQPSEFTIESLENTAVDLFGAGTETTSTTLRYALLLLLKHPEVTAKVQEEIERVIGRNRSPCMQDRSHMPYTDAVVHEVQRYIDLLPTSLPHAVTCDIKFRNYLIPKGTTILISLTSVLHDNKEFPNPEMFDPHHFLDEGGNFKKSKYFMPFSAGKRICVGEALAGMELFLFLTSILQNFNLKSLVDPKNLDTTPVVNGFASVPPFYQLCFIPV
Description: Inhibition of human CYP2C9 using tolbutamide as substrate

[34] = Toxicity in cynomolgus monkey effect on clinical parameters at 0.5 mg/kg, iv or 1 mg/kg, po measured after 1 day post dose; assay type: organism-based, Macaca fascicularis; settings: in vivo, 24 h
[35] = Oral bioavailability in CD1 mouse at 1 mg/kg; assay type: ADME, organism-based; settings: in vivo
Adenosine receptor A1 [36] = biological target: T3, Adenosine receptor A1 (Mus musculus, UniProt Q60612); assay: Displacement of [3H]N6-R-phenylisopropyladenosine from mouse A1A adenosine receptor expressed in CHO cell membranes after 60 mins by scintillation proximity assay
T3 sequence (Q60612 whole entry): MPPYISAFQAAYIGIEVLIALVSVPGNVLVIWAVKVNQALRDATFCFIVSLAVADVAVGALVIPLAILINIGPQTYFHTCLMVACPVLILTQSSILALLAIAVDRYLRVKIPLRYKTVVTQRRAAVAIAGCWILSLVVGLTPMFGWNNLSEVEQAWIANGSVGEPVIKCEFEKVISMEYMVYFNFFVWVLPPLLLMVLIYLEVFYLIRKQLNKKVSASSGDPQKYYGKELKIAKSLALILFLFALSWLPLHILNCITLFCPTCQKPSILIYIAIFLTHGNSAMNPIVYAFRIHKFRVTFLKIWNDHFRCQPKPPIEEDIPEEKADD

[37] = Protein binding in rat plasma; assay type: ADME, cell-free
[38] = Protein binding in mouse plasma; assay type: ADME, cell-free

Cytochrome P450 2C19, sequence (P33261 whole entry): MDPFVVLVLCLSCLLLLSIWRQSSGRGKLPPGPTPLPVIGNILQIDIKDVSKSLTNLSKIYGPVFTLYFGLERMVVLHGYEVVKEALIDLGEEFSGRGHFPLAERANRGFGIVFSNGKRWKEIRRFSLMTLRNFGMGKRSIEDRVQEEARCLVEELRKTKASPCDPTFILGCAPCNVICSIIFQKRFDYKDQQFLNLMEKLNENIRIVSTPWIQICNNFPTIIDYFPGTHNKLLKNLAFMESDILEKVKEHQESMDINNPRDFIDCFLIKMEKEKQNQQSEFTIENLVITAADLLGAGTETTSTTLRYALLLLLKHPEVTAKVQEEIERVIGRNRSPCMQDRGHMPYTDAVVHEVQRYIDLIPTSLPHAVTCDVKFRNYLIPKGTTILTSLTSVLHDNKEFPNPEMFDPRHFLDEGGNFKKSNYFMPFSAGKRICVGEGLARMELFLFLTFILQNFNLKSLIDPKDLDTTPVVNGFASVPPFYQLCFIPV

Question: For OC[C@H]1O[C@@H](n2cnc3c(NC(C4CCC4)C4CCC4)ncnc32)[C@H](O)[C@@H]1O, which “inhibition (INH)” value (Cytochrome P450 2C19) is on record?
Answer: The value was “Not Active”.

Question: What about the Cmax [1] of the same molecule?
Answer: Its Cmax is 121 ng/mL.

Question: And the EC50 (Adenosine receptor A1 [2])?
Answer: The EC50 was 28 nM.

Question: What about the half-life [3] of the same molecule?
Answer: Its half-life is 0.9 to 1.3 h.

Question: And the Stability [4]?
Answer: The Stability was “Stable”.

Question: What about the Emax [5] of the same molecule?
Answer: Its Emax is 70%.

Question: And the Fu [6]?
Answer: Its Fu is 6.05%.

Question: And the IC50 (Adenosine receptor A1 [7])?
Answer: Its IC50 is 0.14 nM.

Question: What about the Stability [8] of the same molecule?
Answer: Its Stability is “Stable”.

Question: What about the Activity (Mus musculus [9]) of the same molecule?
Answer: The Activity was “Active”.

Question: What about the “inhibition (INH)” value (Cytochrome P450 1A2) of the same molecule?
Answer: The value was “Not Active”.

Question: What about the Stability [10] of the same molecule?
Answer: The Stability was “Stable”.

Question: What about the Stability [11] of the same molecule?
Answer: Its Stability is “Stable”.

Question: And the Activity (Mus musculus [12])?
Answer: The Activity was “inactive”.

Question: And the EC50 (Adenosine receptor A1 [13])?
Answer: Its EC50 is 209 nM.

Question: What about the Fu [14] of the same molecule?
Answer: The Fu was 20.6%.

Question: What about the Activity (Mus musculus [15]) of the same molecule?
Answer: Its Activity is “inactive”.

Question: What about the T (Mus musculus [16]) of the same molecule?
Answer: The T was 33 °C.

Question: And the Activity (Mus musculus [17])?
Answer: Its Activity is 6.6.

Question: And the bioavailability [18]?
Answer: The bioavailability was 31 to 43%.

Question: And the Stability [19]?
Answer: The Stability was “Stable”.

Question: And the Activity (Mus musculus [20])?
Answer: The Activity was “Active”.

Question: And the Activity (HepG2)?
Answer: Its Activity is “Non-Toxic”.

Question: What about the IC50 [21] of the same molecule?
Answer: Its IC50 is > 30000 nM.

Question: What about the Fu [22] of the same molecule?
Answer: Its Fu is 14.6%.

Question: With O[C@@H]1[C@H](O)[C@@H]2C[C@@H]2[C@H]1n1cnc2c(NC(C3CC3)C3CC3)nc(Cl)nc21 as the molecule, how does the beta t1/2 [23] read?
Answer: Its beta t1/2 is 5 to 11 h.

Question: What about the bioavailability [24] of the same molecule?
Answer: Its bioavailability is 124%.

Question: And the IC50 (Cytochrome P450 2D6)?
Answer: Its IC50 is > 25000 nM.

Question: And the Stability [25]?
Answer: The Stability was “Stable”.

Question: And the F [26]?
Answer: Its F is 24%.

Question: What about the Stability [27] of the same molecule?
Answer: The Stability was “Stable”.

Question: What about the EC50 (Adenosine receptor A1 [28]) of the same molecule?
Answer: The EC50 was 6.65 nM.

Question: What about the IC50 (Cytochrome P450 3A4) of the same molecule?
Answer: The IC50 was > 25000 nM.

Question: And the beta t1/2 [29]?
Answer: Its beta t1/2 is 2.5 to 4 h.

Question: What about the Activity [30] of the same molecule?
Answer: Its Activity is “Toxic”.

Question: What about the remaining at 2 h [31] of the same molecule?
Answer: Its remaining at 2 h is 51%.

Question: And the Activity [32]?
Answer: Its Activity is “Non-Toxic”.

Question: What about the Activity [33] of the same molecule?
Answer: Its Activity is “Toxic”.

Question: What about the IC50 (Cytochrome P450 2C9) of the same molecule?
Answer: Its IC50 is > 25000 nM.

Question: And the T (Mus musculus [16])?
Answer: The T was 33.4 °C.

Question: What about the Activity [34] of the same molecule?
Answer: The Activity was “Non-Toxic”.

Question: What about the Activity (Mus musculus [17]) of the same molecule?
Answer: The Activity was 5.5.

Question: And the bioavailability [35]?
Answer: Its bioavailability is 98%.

Question: And the Ki (Adenosine receptor A1 [36])?
Answer: The Ki was 5.2 nM.

Question: What about the PPB [37] of the same molecule?
Answer: The PPB was 90%.

Question: What about the PPB [38] of the same molecule?
Answer: Its PPB is 94%.
